The values below are quoted from earlier work in patent publication US20170333565A1, “TLR9 TARGETED CYTOTOXIC AGENTS” (H. LEE MOFFITT CANCER CENTER AND RESEARCH INSTITUTE, INC., priority 2014, published 2017).

The test system of this series is myelodysplastic syndromes (MDS). The following applies: cited from earlier work.

As to `Nc1cccc2c1CN(C1CCC(=O)NC1=O)C2=O` (centres unmarked) [LEN, lenalidomide], the clinical response result (majority of patients with a chromosome 5q deletion (del5q)) is on record as “sustained red blood cell transfusion independence”. For the same molecule, the “median duration of response” value (patients with del5q MDS) is 2.5 years.
